Assay results reported in ChEMBL document CHEMBL4028827, “Discovery of indazole aldosterone synthase (CYP11B2) inhibitors as potential treatments for hypertension” (Bioorg Med Chem Lett, 2017).

Columns and labels:
[1] = Selectivity ratio of IC50 for human CYP11B1-8C7 expressed in Chinese hamster V79 cells to IC50 for human CYP11B2-CLE9 expressed in Chinese hamster V79 cells
[2] = molecular target: Cytochrome P450 2C9 (Homo sapiens, UniProt P11712); assay: Inhibition of hepatic CYP2C9 (unknown origin); format: ADME
[3] = molecular target: T1, Cytochrome P450 11B2, mitochondrial (Homo sapiens, UniProt P19099); assay: Inhibition of human CYP11B2-CLE9 expressed in Chinese hamster V79 cells using 11-deoxycorticosterone as substrate preincubated for 1 hr followed by substrate addition measured for 3 hrs by HTRF assay; format: cell-based
T1 sequence (P19099 whole entry): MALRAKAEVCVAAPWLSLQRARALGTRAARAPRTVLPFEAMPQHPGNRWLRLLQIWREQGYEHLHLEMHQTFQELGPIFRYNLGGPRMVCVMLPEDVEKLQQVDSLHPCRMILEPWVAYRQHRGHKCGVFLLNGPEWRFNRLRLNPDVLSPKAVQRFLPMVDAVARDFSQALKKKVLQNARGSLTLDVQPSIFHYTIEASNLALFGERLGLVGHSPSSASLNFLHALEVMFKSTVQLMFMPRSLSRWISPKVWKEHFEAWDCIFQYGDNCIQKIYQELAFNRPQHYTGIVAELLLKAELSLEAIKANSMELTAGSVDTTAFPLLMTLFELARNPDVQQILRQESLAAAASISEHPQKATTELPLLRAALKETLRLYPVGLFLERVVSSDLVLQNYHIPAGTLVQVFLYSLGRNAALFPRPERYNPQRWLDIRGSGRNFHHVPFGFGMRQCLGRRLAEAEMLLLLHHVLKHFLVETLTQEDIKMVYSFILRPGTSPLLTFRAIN

[4] = molecular target: T2, Cytochrome P450 11B2, mitochondrial (Rattus norvegicus, UniProt P30099); assay: Inhibition of rat CYP11B2-1F4 expressed in Chinese hamster V79 cells using 11-deoxycorticosterone as substrate preincubated for 1 hr followed by substrate addition measured for 3 hrs by HTRF assay; format: cell-based
T2 sequence (P30099 whole entry): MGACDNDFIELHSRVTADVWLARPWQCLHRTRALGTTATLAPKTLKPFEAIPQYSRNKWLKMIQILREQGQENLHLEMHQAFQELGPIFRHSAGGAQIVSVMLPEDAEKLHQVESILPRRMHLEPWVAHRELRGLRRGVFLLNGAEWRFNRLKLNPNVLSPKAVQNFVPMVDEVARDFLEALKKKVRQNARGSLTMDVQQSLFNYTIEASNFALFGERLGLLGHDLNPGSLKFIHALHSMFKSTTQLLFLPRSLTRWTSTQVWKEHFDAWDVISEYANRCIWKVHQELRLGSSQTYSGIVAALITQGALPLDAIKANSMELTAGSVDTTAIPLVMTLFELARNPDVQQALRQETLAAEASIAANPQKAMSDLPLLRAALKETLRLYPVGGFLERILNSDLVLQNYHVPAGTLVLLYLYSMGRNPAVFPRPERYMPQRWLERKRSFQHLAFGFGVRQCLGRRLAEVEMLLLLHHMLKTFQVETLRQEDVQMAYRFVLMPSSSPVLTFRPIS

[5] = molecular target: Cytochrome P450 3A4 (Homo sapiens, UniProt P08684); assay: Inhibition of hepatic CYP3A4 (unknown origin); format: ADME
[6] = molecular target: T3, Steroid 17-alpha-hydroxylase/17,20 lyase (Homo sapiens, UniProt P05093); assay: Inhibition of human CYP17 expressed in African green monkey COS7 cells using 17-hydroxypregnenolone as substrate preincubated for 1 hr followed by substrate addition measured after 3 hrs by EIA; format: cell-based
T3 sequence (P05093 whole entry): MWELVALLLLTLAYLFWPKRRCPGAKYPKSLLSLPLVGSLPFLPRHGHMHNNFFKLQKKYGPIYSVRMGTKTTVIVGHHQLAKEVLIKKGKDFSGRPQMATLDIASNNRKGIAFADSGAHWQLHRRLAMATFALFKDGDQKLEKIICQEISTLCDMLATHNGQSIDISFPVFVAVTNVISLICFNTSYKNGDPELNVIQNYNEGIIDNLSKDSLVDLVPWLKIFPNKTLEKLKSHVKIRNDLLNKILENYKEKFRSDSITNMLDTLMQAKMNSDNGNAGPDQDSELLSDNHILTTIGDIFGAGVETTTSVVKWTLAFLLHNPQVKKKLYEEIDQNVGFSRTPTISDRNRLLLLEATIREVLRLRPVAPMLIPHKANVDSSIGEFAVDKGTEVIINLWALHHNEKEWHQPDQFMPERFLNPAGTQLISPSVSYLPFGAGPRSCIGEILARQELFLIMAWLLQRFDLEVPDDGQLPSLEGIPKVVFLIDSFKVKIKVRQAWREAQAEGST

[7] = molecular target: T4, Aromatase (Homo sapiens, UniProt P11511); assay: Inhibition of CYP19 (unknown origin) using MFC as substrate and NADPH as cofactor preincubated for 10 mins with cofactor followed by substrate/enzyme addition measured after 30 mins
T4 sequence (P11511 whole entry): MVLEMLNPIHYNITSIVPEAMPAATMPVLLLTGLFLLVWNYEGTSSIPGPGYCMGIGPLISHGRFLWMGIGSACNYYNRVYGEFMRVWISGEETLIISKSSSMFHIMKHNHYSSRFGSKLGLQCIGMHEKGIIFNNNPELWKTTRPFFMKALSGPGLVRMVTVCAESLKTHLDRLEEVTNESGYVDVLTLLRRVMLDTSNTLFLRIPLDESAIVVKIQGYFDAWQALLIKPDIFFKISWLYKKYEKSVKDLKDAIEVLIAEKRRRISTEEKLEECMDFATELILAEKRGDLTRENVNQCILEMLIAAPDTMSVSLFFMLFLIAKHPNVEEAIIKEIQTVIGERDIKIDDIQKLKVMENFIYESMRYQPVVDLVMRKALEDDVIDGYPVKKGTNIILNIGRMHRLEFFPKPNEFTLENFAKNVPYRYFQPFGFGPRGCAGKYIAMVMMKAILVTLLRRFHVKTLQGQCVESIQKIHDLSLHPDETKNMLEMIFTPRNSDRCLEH

[8] = molecular target: Cytochrome P450 2D6 (Homo sapiens, UniProt P10635); assay: Inhibition of hepatic CYP2D6 (unknown origin); format: ADME
[9] = molecular target: T5, Steroid 21-hydroxylase (Homo sapiens, UniProt P08686); assay: Inhibition of human CYP21 expressed in African green monkey COS7 cells using […] as substrate preincubated for 1 hr followed by substrate addition measured for 3 hrs by HTRF assay; format: cell-based
T5 sequence (P08686 whole entry): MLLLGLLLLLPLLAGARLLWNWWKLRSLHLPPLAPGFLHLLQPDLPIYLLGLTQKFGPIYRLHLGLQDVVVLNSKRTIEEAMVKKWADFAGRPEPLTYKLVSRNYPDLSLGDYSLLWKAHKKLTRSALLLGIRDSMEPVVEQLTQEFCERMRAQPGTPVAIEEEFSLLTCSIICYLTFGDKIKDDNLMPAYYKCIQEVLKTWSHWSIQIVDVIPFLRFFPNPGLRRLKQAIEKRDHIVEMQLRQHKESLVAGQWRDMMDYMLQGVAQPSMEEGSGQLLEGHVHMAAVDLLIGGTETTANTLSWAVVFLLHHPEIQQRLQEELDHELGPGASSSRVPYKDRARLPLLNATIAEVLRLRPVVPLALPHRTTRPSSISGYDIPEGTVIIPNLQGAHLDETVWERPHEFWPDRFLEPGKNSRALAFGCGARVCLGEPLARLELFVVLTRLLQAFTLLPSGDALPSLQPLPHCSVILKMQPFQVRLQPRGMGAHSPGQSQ

[10] = molecular target: T6, Cytochrome P450 11B1, mitochondrial (Homo sapiens, UniProt P15538); assay: Inhibition of human CYP11B1-8C7 expressed in Chinese hamster V79 cells using 11-deoxycortisol as substrate preincubated for 1 hr followed by substrate addition measured for 3 hrs by HTRF assay; format: ADME, cell-based
T6 sequence (P15538 whole entry): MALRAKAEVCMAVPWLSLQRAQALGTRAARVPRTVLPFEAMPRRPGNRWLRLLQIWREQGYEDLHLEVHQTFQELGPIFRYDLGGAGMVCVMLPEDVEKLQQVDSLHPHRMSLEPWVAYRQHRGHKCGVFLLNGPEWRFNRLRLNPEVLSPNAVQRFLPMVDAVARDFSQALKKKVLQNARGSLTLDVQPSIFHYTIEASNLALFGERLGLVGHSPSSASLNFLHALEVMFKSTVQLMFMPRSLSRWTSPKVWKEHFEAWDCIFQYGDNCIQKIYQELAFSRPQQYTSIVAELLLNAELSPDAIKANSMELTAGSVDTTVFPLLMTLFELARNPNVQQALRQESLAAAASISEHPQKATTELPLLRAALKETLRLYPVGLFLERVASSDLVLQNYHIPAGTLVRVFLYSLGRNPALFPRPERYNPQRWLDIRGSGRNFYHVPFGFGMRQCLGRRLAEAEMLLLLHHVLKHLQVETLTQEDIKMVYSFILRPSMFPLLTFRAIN

Chain of Cytochrome P450 3A4 (P08684 whole entry): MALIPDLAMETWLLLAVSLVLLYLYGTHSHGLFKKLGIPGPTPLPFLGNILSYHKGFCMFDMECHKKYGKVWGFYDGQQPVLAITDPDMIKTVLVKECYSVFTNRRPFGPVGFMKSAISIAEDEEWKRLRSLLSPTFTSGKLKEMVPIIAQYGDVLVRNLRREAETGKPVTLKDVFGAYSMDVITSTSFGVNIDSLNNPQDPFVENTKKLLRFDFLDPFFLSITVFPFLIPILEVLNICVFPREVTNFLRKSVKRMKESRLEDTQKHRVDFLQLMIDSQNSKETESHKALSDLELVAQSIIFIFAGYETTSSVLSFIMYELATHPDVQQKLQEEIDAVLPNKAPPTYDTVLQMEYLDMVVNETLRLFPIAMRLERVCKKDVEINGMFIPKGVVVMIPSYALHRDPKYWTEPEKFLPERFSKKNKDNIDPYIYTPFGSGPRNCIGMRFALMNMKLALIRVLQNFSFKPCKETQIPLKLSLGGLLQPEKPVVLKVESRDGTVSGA
Chain of Cytochrome P450 2D6 (P10635 whole entry): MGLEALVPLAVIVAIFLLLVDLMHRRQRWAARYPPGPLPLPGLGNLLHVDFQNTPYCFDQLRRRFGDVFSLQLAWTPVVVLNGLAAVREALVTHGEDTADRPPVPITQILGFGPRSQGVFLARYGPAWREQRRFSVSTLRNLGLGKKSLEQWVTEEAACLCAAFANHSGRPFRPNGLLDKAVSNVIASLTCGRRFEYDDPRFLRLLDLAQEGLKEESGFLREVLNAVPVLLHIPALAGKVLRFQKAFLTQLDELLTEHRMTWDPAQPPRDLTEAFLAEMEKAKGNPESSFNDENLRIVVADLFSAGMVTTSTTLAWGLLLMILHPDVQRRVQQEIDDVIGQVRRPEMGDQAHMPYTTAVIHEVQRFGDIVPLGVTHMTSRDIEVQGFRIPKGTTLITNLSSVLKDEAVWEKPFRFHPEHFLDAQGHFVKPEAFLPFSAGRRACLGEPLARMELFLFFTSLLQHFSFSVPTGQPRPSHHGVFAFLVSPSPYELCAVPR
Chain of Cytochrome P450 2C9 (P11712 whole entry): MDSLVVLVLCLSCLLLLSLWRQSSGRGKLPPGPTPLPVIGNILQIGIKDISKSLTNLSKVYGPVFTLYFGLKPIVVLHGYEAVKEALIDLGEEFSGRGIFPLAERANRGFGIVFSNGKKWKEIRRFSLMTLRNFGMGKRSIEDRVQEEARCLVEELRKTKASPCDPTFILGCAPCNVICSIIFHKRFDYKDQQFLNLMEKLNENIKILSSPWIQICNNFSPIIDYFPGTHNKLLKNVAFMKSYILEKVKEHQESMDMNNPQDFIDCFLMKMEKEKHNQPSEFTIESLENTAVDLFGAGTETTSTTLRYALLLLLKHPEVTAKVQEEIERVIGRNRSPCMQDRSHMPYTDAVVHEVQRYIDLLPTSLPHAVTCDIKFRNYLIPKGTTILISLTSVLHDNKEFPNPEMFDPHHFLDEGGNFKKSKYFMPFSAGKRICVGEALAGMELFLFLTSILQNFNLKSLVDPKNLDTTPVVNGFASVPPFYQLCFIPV

SMILES | Ratio IC50 [1] | IC50 [2] | IC50 [3] | IC50 [4] | IC50 [5] | IC50 [6] | IC50 [7] | IC50 [8] | IC50 [9] | IC50 [10]
C[C@](O)(c1cncc(-n2nc(C(F)(F)F)c3ccccc32)c1)C(F)(F)F | 11 | 7.2 µM | 0.077 to 0.0774 µM | 0.077 µM | > 50 µM | > 10 µM | 5.4 µM | > 50 µM | > 10 µM | 0.856 to 0.86 µM
Cc1nn(-c2cncc([C@@](C)(O)C(F)(F)F)c2)c2ccccc12 | 12 | 3.8 µM | 0.0329 to 0.033 µM | 0.033 µM | > 50 µM | > 10 µM | 6.2 µM | > 50 µM | > 10 µM | 0.386 to 0.39 µM
Cc1nn(-c2cncc(C(C)(C)O)c2)c2cccc(F)c12 | 17 | 4.7 µM | 0.0013 to 0.00131 µM | 0.0013 µM | > 50 µM | > 10 µM | 6.9 µM | > 50 µM | > 10 µM | 0.022 to 0.0223 µM
Cc1nn(-c2cncc([C@](C)(O)C(F)(F)F)c2)c2ccccc12 | 24 | 11 µM | 0.014 to 0.0143 µM | 0.014 µM | > 50 µM | > 10 µM | 6.3 µM | > 50 µM | > 10 µM | 0.338 to 0.34 µM
